These results are taken from article PMC8868285, “Pharmacological Inhibition of Epac1 Averts Ferroptosis Cell Death by Preserving Mitochondrial Integrity” (Antioxidants, 2022).

Test [1] concerns HT-22 cells. The test can be described thus: xCELLigence real-time cell impedance measurement. Type of test: cell-based, mouse. Conditions: ≥30 µM CE3F4 (30 and 100 μM), erastin 1 μM. The method, then: Cell viability and metabolic activity of cells was first assessed using a colorimetric 3-(4,5-dimethylthiazol-2-yl)-2,5-diphenyltetrazolium Bromide (MTT) (Sigma–Aldrich Chemie GmbH, Steinheim, Germany, #M5655) reduction assay. Cells in a 96-well plate format (8–10,000 cells/well) were incubated with the MTT solution (0.5 mg/mL) for a maximum of 1 h at 37 °C. Afterward, the MTT-containing solution was entirely removed, and the 96-well plate was incubated at −80 °C for at least 2 h. To allow formazan to uniformly disperse in the medium, dimethyl sulfoxide (DMSO) (Sigma–Aldrich Chemie GmbH, Steinheim, Germany, #D8418, Lot# SHBH9942) was administered to the cells for 1 h at 37 °C with continuous shaking. The absorbance values were determined by Synergy™H1 (Bad Friedrichshall, Germany) Hybrid MultiMode Reader at 570 nm with a 630 nm reference filter. The absorbance values of untreated healthy cells or cells treated with DMSO 1% (used as a solvent for various pharmacological applications) were regarded as 100% of cell viability. […] HT-22 cells were treated with the following conditions: control condition (solvent), drug of interest, erastin, and pre- or co-treatment with erastin and drug of interest. […] Continuous cell monitoring was performed by using an E-plate 96 and the cellular impedance or cell resistance was assessed every 15 min for 24 h.

Test [2] concerns isolated mitochondria from HT-22 cells. The test can be described thus: High-resolution respirometry (Oroboros) of isolated mitochondria. Details: species or system mouse. The method, then: Mitochondria were isolated from harvested HT-22 cells (4–8 × 10^7 cultivated in T75 flasks) using a semi-automated pump-controlled cell rupture system (PCC) (0.71 mL/min) with syringes (SGE, Trajan© Scientific, Ringwood, Australia) attached to a cell homogenizer (Isobiotech, EMBL, Heidelberg, Germany) (bead size of 10 μm suitable for HT-22 cells) and superimposed on a pump (ProSense B.V, Oosterhout, The Netherlands, #NE1000). Collected samples were centrifuged at 800 rpm for 10 min at 4 °C. The supernatant was further centrifuged at 9000× g for 10 min at 4 °C. The resulting pellet was the crude mitochondria. Finally, the mitochondria were suspended in an isolation buffer (HEPES 20 mM, sucrose 250 mM EDTA 3 mM, pH 7.5) for subsequent experiments. The whole procedure was executed on ice.
The protein concentration of isolated mitochondria was determined using the Pierce™ BCA Protein Assay Kit (Pierce™ BCA Protein Assay Kit, Thermo Scientific, Rockford, IL, USA, #23225). Respiration of the isolated mitochondria from HT-22 cells was analyzed using the high-resolution respirometry oxygraph O2K (Oroboros Systems, Innsbruck, Austria). The isolated mitochondria (200 μg) prepared as previously described, were treated with either CE3F4, ESI-05, ethanol, or DMSO as appropriate for 25 min, followed by mitochondrial respiration measurements. Mitochondrial state 1 was determined by continuous stirring at 750 rpm in 1 mL of MiR05 buffer (MgCl2 3 mM, lactobionic acid 60 mM, EGTA 0.5 mM taurine 20 mM, KH2PO4 10 mM, D-Sucrose 110 mM, HEPES 20 mM, BSA, essential fatty acid-free1 g/L, pH adjusted to 7.4). DatLab software (Oroboros Systems, Innsbruck, Austria) was used to record real-time oxygen flux per tissue mass (pmol O2. s^−1 × mg^−1) at 37 °C and to perform oxygen polarography. States were described as, State 2: a non-phosphorylating respiration state which was assessed by addition of complex-I linked substrates, 5 mM pyruvate (Sigma–Aldrich Chemie GmbH, Steinheim, Germany #P-2256), and 2 mM malate (Sigma–Aldrich Chemie GmbH, Steinheim, Germany, #374318); State 3: the oxidative-phosphorylation capacity (OXPHOS) state, of complex-I linked activity or basal respiration was achieved by adding a saturating concentration of 0.8 mM ADP (Sigma–Aldrich Chemie GmbH, Steinheim, Germany, #A5285), this allowed for calculation of ADP-coupled repiration; State 4: Achieved by subsequent addition of oligomycin 0.1 μM/mL (Sigma–Aldrich Chemie GmbH, Steinheim, Germany, #O4876) following state 3, oligomycin blocks the ATP-synthase, thereby inhibiting proton passage; State 3U: Was assessed by incremental steps of 1 μM addition of FCCP—theprotonophore carbonyl cyanide 4-(trifluoromethoxy) phenylhydrazone (Sigma–Aldrich Chemie GmbH, Steinheim, Germany, #C2920), this allowed the calculation of the reserve capacity of the Electron Transport Chain (ETC); Finally, sodium dithionite (DTT, Sigma–Aldrich Chemie GmbH, Steinheim, Germany, #15,795-3) was added to reduce all residual oxygen that was present in the chamber and to calibrate the oxygen content in the chamber. The O2 slope (pmol × (mL/s)) of isolated mitochondria was the oxygen concentration and also the initial derivate of the oxygen concentration—a derivative of oxygen consumption. Measurements were recorded in intervals of 2 s by using a background correction after calibration of the polarographic oxygen sensors.

The test system of test [3] is HT-22 cells. The test can be described thus: Soluble ROS, CM-DCF FACS. The class given is cell-based, mouse. As to the method: Soluble ROS was evaluated by CM-DCF fluorescent dye (Invitrogen, Oregon City, OR, USA). CM-DCF passively diffuses into cells, and reacts with glutathione and other thiols following cleavage by intracellular esterases, which in turn exposes the thiol-reactive chloromethyl group. The oxidation that follows results in a fluorescent adduct that is ensnared within the cell. The higher the fluorescence, the more cellular ROS is produced in the cells.

The subject of another test is Epac1. The note with it: CE3F4, Epac1 inhibitor; cited from earlier work.
Test [4] relates to HT-22 cells. The test can be described thus: Brightfield images of cell morphology. The class given is cell-based, mouse. Conditions: 100 μM CE3F4 + erastin 1 μM.

Regarding `CC1CCc2c(cc(Br)c(F)c2Br)N1C=O` (centres unmarked) [CE3F4], the “protection against erastin-induced cell death (cell impedance)” value in the test on HT-22 cells [1] is on record as “markedly prevented erastin-induced cell death”. Besides, the ADP-coupled respiration entry in test [2] (30 μM CE3F4) and in test [2] (100 µM CE3F4) was “no significant differences” in each case. Further, the “mitochondrial respiration states (2, 3, 4, 3U)” value in test [2] (CE3F4 30 μM and 100 μM, 25 min) was “no significant effect on any mitochondrial respiration states”. Further, the “intracellular ROS production (CM-DCF)” value in the test with HT-22 cells [3] (100 μM CE3F4 + erastin vs erastin alone, not restored to control levels) was “significant decrease in intracellular ROS production”. For the same compound, the “total intracellular ROS production (CM-DCF)” value with HT-22 cells [3] (100 μM CE3F4 alone) is reported as “did not influence the amount of total intracellular ROS production”. Further, in the test on Epac1, the IC50 is 23 ± 3 µM. Further, the “effect on erastin-induced alteration in cell morphology” value in the test on HT-22 cells [4] is “prevented”.

As usually defined, the IC50 is the point on the concentration scale where inhibition reaches its midpoint.
